The values that follow are results of earlier work, collected in patent US20040253299A1, “Transdermal therapeutic system (reservoir-tts) for using pramipexole and ropinirole” (priority 2001, published 2004).

For this data set the following is noted: administered orally.

Turning to `CCCN(CCC)CCc1cccc2c1CC(=O)N2` [Ropinirole, 4-(2-di-n-propylaminoethyl)-2-(3H)-indolone], the bioavailability is recorded as 50%. `CCCNC1CCc2nc(N)sc2C1` (centres unmarked) [pramipexole, 2-amino-6-n-propylamino-4,5,6,7-tetrahydrobenzothiazole]: the bioavailability is reported as 90%.
